In patent US20160039825A1 (BIOGEN MA INC., priority 2013, published 2016):

The molecules below were run against T1, Human ATX protein (Homo sapiens, UniProt Q13822) (assay: Autotaxin (ATX) assay, FRET with FS-3 substrate). Details: upper bound bins (no greater than 100, 250 or 500 nM); FS-3 2 μM, ATX 1.0 μg/mL.
T1 construct: made in house
Format: biochemical
Summary of the method: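 Hydrolysis of the FRET substrate FS-3 (2 μM final) unquenches fluorescein, read at excitation 485 nm and emission 538 nm after 2 h at room temperature, protected from light. Purified human ATX (1.0 μg/mL) and compound were first incubated for 30 min in pH 7.4 Tris/salt buffer containing 1 mg/mL fatty acid-free BSA.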

| SMILES | IC50 [nM] |
| --- | --- |
| CC1OCCN(CC(=O)c2cc3n(n2)CCCN(C(=O)OCc2cc(Cl)cc(C(F)(F)F)c2)C3)C1C (stereo not drawn) [Example 266] | ≤ 100 |
| CC(c1cc2n(n1)CCN(C(=O)OCc1cc(C(F)(F)F)cc(C(F)(F)F)c1)C2)N1C2CCC1CN(C(=O)OC(C)(C)C)C2 (stereo not drawn) [Example 450] | ≤ 100 |
| O=C(OCc1cc(Cl)cc(C(F)(F)F)c1)N1CCCn2nc(C(=O)N3CCC4(CCNCC4)C3)cc2C1 [Example 169] | ≤ 100 |
| CC(N)c1cc2n(n1)CCN(C(=O)OCc1cc(C(F)(F)F)cc(C(F)(F)F)c1)C2 (stereo not drawn) [Example 395, 3,5-bis(Trifluoromethyl)benzyl 2-(1-aminoethyl)-6,7-dihydropyrazolo[1,5-a]pyrazine-5(4H)-carboxylate] | ≤ 100 |
| CN1C2CCC1CN(C(=O)c1cc3n(n1)CCCN(C(=O)OCc1cc(C(F)(F)F)cc(C(F)(F)F)c1)C3)C2 [Example 225] | ≤ 100 |
| O=C(O)C1CC2CCCC(C1)N2Cc1cc2n(n1)CCCN(C(=O)OCc1cc(C(F)(F)F)cc(C(F)(F)F)c1)C2 (stereo not drawn) [Example 297] | ≤ 250 |
| CCC1CC(Nc2cc3n(n2)CCCN(C(=O)OCc2cc(C(F)(F)F)cc(C(F)(F)F)c2)C3)CCN1 (stereo not drawn) [Example 323] | ≤ 100 |
| O=C(NC1CCCCC1)c1cc2n(n1)CCCN(C(=O)OCc1cc(Cl)cc(Cl)c1)C2 [Example 17, 3,5-Dichlorobenzyl 2-(cyclohexylcarbamoyl)-7,8-dihydro-4H-pyrazolo[1,5-a][1,4]diazepine-5(6H)-carboxylate] | ≤ 100 |
| O=C(O)c1cc2n(n1)CCCN(C(=O)OCc1cc(F)cc(Br)c1)C2 [Example 75, 5-(((3-Bromo-5-fluorobenzyl)oxy)carbonyl)-5,6,7,8-tetrahydro-4H-pyrazolo[1,5-a][1,4]diazepine-2-carb oxylic acid] | ≤ 500 |
| O=C(OCc1cc(Cl)cc(C(F)(F)F)c1)N1CCCn2nc(C(=O)N3CC4CNC(C4)C3)cc2C1 (stereo not drawn) [Example 188] | ≤ 100 |
| O=C(OCc1cc(C(F)(F)F)cc(C(F)(F)F)c1)N1CCCn2nc(N3CC4CCC(C3)N4)cc2C1 [Example 344] | ≤ 250 |
| O=C(O)C1CC2CCCC(C1)N2C(=O)c1cc2n(n1)CCN(C(=O)OCc1cc(Cl)cc(Cl)c1)C2 (stereo not drawn) [Example 41, 9-(5-(((3,5-Dichlorobenzyl)oxy)carbonyl)-4,5,6,7-tetrahydropyrazolo[1,5-a]pyrazine-2-carbonyl)-9-azabicyclo[3.3.1]nonane-3-carboxylic acid] | ≤ 100 |
| C[C@@H]1CNC[C@@H](C)N1C(=O)c1cc2n(n1)CCCN(C(=O)OCc1cc(C(F)(F)F)cc(C(F)(F)F)c1)C2 [Example 248] | ≤ 100 |
| O=C(OCc1cc(C(F)(F)F)cc(C(F)(F)F)c1)N1CCn2nc(-c3cccnc3)cc2C1 [Example 496, 3,5-bis(trifluoromethyl)benzyl 2-(pyridin-3-yl)-6,7-dihydropyrazolo[1,5-a]pyrazine-5(4H)-carboxylate] | ≤ 100 |
| CC(C)(C)OC(=O)N1C2CCC1CN(C(=O)c1cc3n(n1)CCN(C(=O)OCc1cc(C(F)(F)F)cc(C(F)(F)F)c1)C3)C2 [Example 470] | ≤ 100 |
| O=C(OCc1cc(C(F)(F)F)cc(C(F)(F)F)c1)N1CCCn2nc(N3CCN4CCC[C@@H]4C3)cc2C1 [Example 347] | ≤ 100 |
| CC(NC1COC1)c1cc2n(n1)CCCN(C(=O)OCc1cc(C(F)(F)F)cc(C(F)(F)F)c1)C2 (stereo not drawn) [Example 509] | ≤ 250 |
| CCOC(=O)c1cc2n(n1)CCCN(C(=O)OCc1cc(Cl)cc(Cl)c1)C2 [Example 1, 5-(3,5-Dichlorobenzyl) 2-ethyl 7,8-dihydro-4H-pyrazolo[1,5-a][1,4]diazepine-2,5(6H)-dicarboxylate] | ≤ 500 |
| CCOC(=O)c1cc2n(n1)CCN(C(=O)OCc1cc(Cl)cc(C(F)(F)F)c1)C2 [Example 402, 5-(3-chloro-5-(trifluoromethyl)benzyl) 2-ethyl 6,7-dihydropyrazolo[1,5-a]pyrazine-2,5(4H)-dicarboxylate] | ≤ 100 |
| O=C(O)C1CCCN(C(=O)c2cc3n(n2)CCCN(C(=O)OCc2cc(Cl)cc(Cl)c2)C3)C1 (stereo not drawn) [Example 88, 1-(5-(((3,5-dichlorobenzyl)oxy)carbonyl)-5,6,7,8-tetrahydro-4H-pyrazolo[1,5-a][1,4]diazepine-2-carbonyl)piperidine-3-carboxylic acid] | ≤ 250 |
| NC1CN(C(=O)c2cc3n(n2)CCN(C(=O)OCc2cc(C(F)(F)F)cc(C(F)(F)F)c2)C3)C1 [Example 424] | ≤ 100 |
| O=C(O)C1CC2CCCC(C1)N2C(=O)c1cc2n(n1)CCCN(C(=O)OCc1cc(F)cc(Cl)c1)C2 (stereo not drawn) [Example 61, 9-(5-((3-Chloro-5-fluorobenzyloxy)carbonyl)-5,6,7,8-tetrahydro-4H-pyrazolo[1,5-a][1,4]diazepine-2-carbonyl)-9-aza-bicyclo[3.3.1]nonane-3-carboxylic acid] | ≤ 100 |
| O=C(O)C1CC2CCCC(C1)N2C(=O)c1cc2n(n1)CCN(C(=O)OCc1cc(F)cc(Cl)c1)C2 (stereo not drawn) [Example 46, 9-(5-(((3-Chloro-5-fluorobenzyl)oxy)carbonyl)-4,5,6,7-tetrahydropyrazolo[1,5-a]pyrazine-2-carbonyl)-9-azabicyclo[3.3.1]nonane-3-carboxylic acid] | ≤ 100 |
| O=C(O)C1CC2CCCC(C1)N2C(=O)c1cc2n(n1)CCCN(C(=O)OCc1cccc(C(F)(F)F)c1)C2 (stereo not drawn) [Example 58, 9-(5-((3-(Trifluoromethyl)benzyloxy)carbonyl)-5,6,7,8-tetrahydro-4H-pyrazolo[1,5-a][1,4]diazepine-2-carbonyl)-9-aza-bicyclo[3.3.1]nonane-3-carboxylic acid] | ≤ 100 |
| O=C(OCc1cc(Cl)cc(C(F)(F)F)c1)N1CCCn2nc(C(=O)N3CCN4CCC[C@@H]4C3)cc2C1 [Example 214] | ≤ 100 |

Results, then the molecule that gave them:

| IC50 [nM] | SMILES |
| --- | --- |
| ≤ 100 | CC1CN(c2cc3n(n2)CCCN(C(=O)OCc2cc(C(F)(F)F)cc(C(F)(F)F)c2)C3)CC(C)N1 (stereo not drawn) [Example 345] |
| ≤ 100 | CC1CCN(C(=O)c2cc3n(n2)CCN(C(=O)OCc2cc(C(F)(F)F)cc(C(F)(F)F)c2)C3)CC1 [Example 488] |
| ≤ 100 | CCOC(=O)c1nn2c(c1Cl)CN(C(=O)OCc1cc(C(F)(F)F)cc(C(F)(F)F)c1)CCC2 [Example 108, 5-(3,5-Bis(trifluoromethyl)benzyl) 2-ethyl 3-chloro-7,8-dihydro-4H-pyrazolo[1,5-a][1.4]diazepine-2,5(6H)-dicarboxylate] |
| ≤ 500 | CC(N)c1cc2n(n1)CCCN(C(=O)OCc1cc(C(F)(F)F)cc(C(F)(F)F)c1)C2 (stereo not drawn) [Example 147, 3,5-Bis(trifluoromethyl)benzyl 2-(1-aminoethyl)-7,8-dihydro-4H-pyrazolo[1,5-a][1,4]diazepine-5(6H)-carboxylate] |
| ≤ 250 | O=C(OCc1cc(C(F)(F)F)cc(C(F)(F)F)c1)N1CCCn2nc(NC3CCCNC3)cc2C1 (stereo not drawn) [Example 317] |
| ≤ 100 | NC1CN(C(=O)c2cc3n(n2)CCN(C(=O)OCc2cc(Cl)cc(C(F)(F)F)c2)C3)C1 [Example 431] |
| ≤ 100 | O=C(O)C1CN(C(=O)c2cc3n(n2)CCCN(C(=O)OCc2cc(C(F)(F)F)cc(C(F)(F)F)c2)C3)CCN1 (stereo not drawn) [Example 192] |
| ≤ 100 | CN1CCN(C(=O)c2cc3n(n2)CCCN(C(=O)OCc2cc(Cl)cc(C(F)(F)F)c2)C3)C2(CCCC2)C1 [Example 232] |
| ≤ 100 | O=C(NC1CCCC1)c1cc2n(n1)CCCN(C(=O)OCc1cc(Cl)cc(Cl)c1)C2 [Example 16, 3,5-Dichlorobenzyl 2-(cyclopentylcarbamoyl)-7,8-dihydro-4H-pyrazolo[1,5-a][1,4]diazepine-5(6H)-carboxylate] |
| ≤ 500 | CCOC(=O)c1cc2n(n1)CCCN(C(=O)OCCc1cc(C(F)(F)F)cc(C(F)(F)F)c1)C2 [Example 141, 5-(3,5-Bis(trifluoromethyl)phenethyl) 2-ethyl 7,8-dihydro-4H-pyrazolo[1,5-a][1,4]diazepine-2,5(6H)-dicarboxylate] |
| ≤ 100 | CN1CCN(C(=O)c2nn3c(c2F)CN(C(=O)OCc2cc(Cl)cc(C(F)(F)F)c2)CCC3)CC1 [Example 515] |
| ≤ 100 | O=C(OCc1cc(Cl)cc(C(F)(F)F)c1)N1CCCn2nc(C(=O)N3CCNCC3)cc2C1 [Example 158, 3-chloro-5-(trifluoromethyl)benzyl 2-(piperazine-1-carbonyl)-7,8-dihydro-4H-pyrazolo[1,5-a][1,4]diazepine-5(6H)-carboxylate] |
| ≤ 100 | O=C(OCc1cc(Cl)cc(C(F)(F)F)c1)N1CCn2nc(C(=O)N3CCC(O)CC3)cc2C1 [Example 479] |
| ≤ 100 | CC(C)(C(=O)O)c1cc2n(n1)CCCN(C(=O)OCc1cc(C(F)(F)F)cc(C(F)(F)F)c1)C2 [Example 388] |
| ≤ 100 | C[C@@H]1CNC[C@H](C)N1C(=O)c1cc2n(n1)CCCN(C(=O)OCc1cc(C(F)(F)F)cc(C(F)(F)F)c1)C2 [Example 163] |
| ≤ 100 | NC(=O)c1cc2n(n1)CCCN(C(=O)OCc1cc(Cl)cc(Cl)c1)C2 [Example 102, 3,5-Dichlorobenzyl 2-carbamoyl-7,8-dihydro-4H-pyrazolo[1,5-a][1,4]diazepine-5(6H)-carboxylate] |
| ≤ 100 | CC1CN(CC(=O)c2cc3n(n2)CCCN(C(=O)OCc2cc(Cl)cc(C(F)(F)F)c2)C3)CCO1 (stereo not drawn) [Example 268] |
| ≤ 100 | CC(O)c1cc2n(n1)CCCN(C(=O)OCc1cc(C(F)(F)F)cc(C(F)(F)F)c1)C2 (stereo not drawn) [Example 146, 3,5-Bis(trifluoromethyl)benzyl 2-(1-hydroxyethyl)-7,8-dihydro-4H-pyrazolo[1,5-a][1,4]diazepine-5(6H)-carboxylate] |
| ≤ 250 | NS(=O)(=O)c1cc2n(n1)CCCN(C(=O)OCc1cc(C(F)(F)F)cc(C(F)(F)F)c1)C2 [Example 301, 3,5-bis(trifluoromethyl)benzyl 2-sulfamoyl-7,8-dihydro-4H-pyrazolo[1,5-a][1,4]diazepine-5(6H)-carboxylate] |
| ≤ 100 | C[C@@H]1CNC[C@H](C)N1C(=O)c1cc2n(n1)CCCN(C(=O)OCc1cc(Cl)cc(C(F)(F)F)c1)C2 [Example 164] |
